Experimental data from ChEMBL document CHEMBL1126095, “Incorporation of a novel conformationally restricted tyrosine analog into a cyclic, delta opioid receptor selective tetrapeptide (JOM-13) enhances delta receptor binding affinity and selectivity” (J Med Chem, 1992).
Positions of bridges follow the written chain, without caps; N, C: chain ends. Non-standard residues stand in square brackets, D forms with d. Residues, ends and D or L forms follow the SMILES beside them. Pen = CC(C)(S)[C@H](N)C(=O)O

Columns and labels:
Mu-type opioid receptor = Mu-type opioid receptor (Cavia porcellus, UniProt P97266); assay: Binding affinity against opioid receptor mu in guinea pig brain homogenates, using [3H]DAMGO as radioligand.; assay type: tissue-based
[1] = molecular target: Kappa-type opioid receptor (Cavia porcellus, UniProt P41144); assay: Binding affinity against opioid receptor kappa from guinea pig brain homogenates, using [3H]U-69593 as radioligand.; assay type: tissue-based
[2] = Binding affinity against Opioid receptor delta 1 in guinea pig brain homogenates, using [3H]DPDPE as radioligand.

Mu-type opioid receptor, sequence (P97266 whole entry): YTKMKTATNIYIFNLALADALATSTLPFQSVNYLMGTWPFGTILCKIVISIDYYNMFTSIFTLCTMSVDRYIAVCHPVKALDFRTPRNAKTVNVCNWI
Kappa-type opioid receptor, sequence (P41144 whole entry): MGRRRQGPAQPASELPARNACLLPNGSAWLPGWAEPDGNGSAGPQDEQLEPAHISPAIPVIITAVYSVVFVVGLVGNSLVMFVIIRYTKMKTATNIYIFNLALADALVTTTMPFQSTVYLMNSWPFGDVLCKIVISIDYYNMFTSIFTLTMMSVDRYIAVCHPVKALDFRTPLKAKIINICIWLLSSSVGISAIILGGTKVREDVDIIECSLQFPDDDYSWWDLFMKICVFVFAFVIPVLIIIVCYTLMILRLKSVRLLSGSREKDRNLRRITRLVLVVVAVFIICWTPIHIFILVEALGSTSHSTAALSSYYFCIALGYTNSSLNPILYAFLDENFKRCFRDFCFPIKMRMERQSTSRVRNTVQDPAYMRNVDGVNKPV

For `CC1(C)SSC[C@@H](NC(=O)[C@H]2NCC[C@@H]2c2ccc(O)cc2)C(=O)N[C@@H](Cc2ccccc2)C(=O)N[C@@H]1C(=O)O`, the Ki (Mu-type opioid receptor) was 0.105 µM and the Ki [1] was 10 µM.

`CC1(C)SSC[C@H](NC(=O)[C@@H](N)Cc2ccc(O)cc2)C(=O)N[C@@H](Cc2ccccc2)C(=O)N[C@@H]1C(=O)O` (H-YCF[Pen]-OH; disulfide 2-4) gave a Ki [2] of 0.00179 µM.

For `CC1(C)SSC[C@@H](NC(=O)[C@@H]2NCC[C@@H]2c2ccc(O)cc2)C(=O)N[C@@H](Cc2ccccc2)C(=O)N[C@@H]1C(=O)O`, the Ki (Mu-type opioid receptor) was 10 µM and the Ki [1] was over 10 µM.
